Consider 2 compounds from US7945392B2, “Methods and systems for drug screening and computational modeling based on biologically realistic neurons” (McLean Hospital Corporation, priority 2005, dated 2011).

The conditions of test [1]: highly selective antagonist at the D4 receptor; cited from earlier work.
In the next test the target is D1 receptor (Homo sapiens, UniProt P21728). Nature of the test: Fraction of receptors occupied, calculated from drug concentration and Ki. The conditions noted are these: at a therapeutic olanzapine level. From the text:
In particular, affinities of many drugs for receptors are well known. For example, Goodman and Gilmans “The Pharmacological Basis of Therapeutics,” Tenth Edition.

Sequence of D1 receptor (P21728 whole entry): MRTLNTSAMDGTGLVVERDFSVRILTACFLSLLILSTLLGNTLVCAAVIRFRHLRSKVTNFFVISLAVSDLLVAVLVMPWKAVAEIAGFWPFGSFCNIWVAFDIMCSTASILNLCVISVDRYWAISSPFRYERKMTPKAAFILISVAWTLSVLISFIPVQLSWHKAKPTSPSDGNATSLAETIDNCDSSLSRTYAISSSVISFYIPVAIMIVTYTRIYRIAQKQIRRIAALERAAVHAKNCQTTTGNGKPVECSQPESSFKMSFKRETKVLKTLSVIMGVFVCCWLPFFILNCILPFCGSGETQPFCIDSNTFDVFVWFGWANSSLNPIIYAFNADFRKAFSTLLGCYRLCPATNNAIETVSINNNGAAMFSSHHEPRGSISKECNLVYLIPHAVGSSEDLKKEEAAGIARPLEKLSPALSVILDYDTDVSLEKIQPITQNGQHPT

In the case of `Clc1ccc(N2CCN(Cc3c[nH]c4ncccc34)CC2)cc1` [L-745870], the antipsychotic effectiveness result in test [1] is reported as “ineffective”.
Regarding `Cc1cc2c(s1)Nc1ccccc1N=C2N1CCN(C)CC1` [olanzapine], the “D1 receptors blocked (antagonized)” value on D1 receptor is reported as “approximately 47%”.
